Experimental data from patent US7723289B2, “PIF tetrapeptides” (BioIncept, LLC, priority 2003, dated 2010).

Legend:
PBMC [1] = test: PIF and analogues on release of cytokines +/- platebound mAbCD3 (Table 4); type: cell-based; parameters: IL-1β / TNFa / IL-4 / IL-5 / IL-6 / IL-10 / GM-CSM / IFN-g: unit not given here
epithelial cells = test: PIF binding to endometrial epithelial cells (MaBCD2 staining); parameters: species or system human; details: compared to non-relevant IgG
Protocol: (§1) In addition, to compare the recovery of β-3 integrin expression with PIF effects described after cultured hEEC in a free-fetal bovine serum (FBS) medium some cells were cultured again in FBS-medium. […] PIF binding to epithelial cells was also examined. Binding was examined using MaBCD2 staining.

CD3 = CD3 expression in PBMC (flow cytometry, MAbCD3-PE); type: cell-based; details: PBMC exposed 3 days, 2-200 nM
Protocol: Fluorescent PIF peptides bind to immune cell membranes following activation. […] CD69 is expressed during activation of lymphocytes and monocytes, and is a marker of NK cells activation. CD25 is the receptor for IL-2, and a known activation marker as well. […] The expression of CD3 in PBMC was examined following exposure for 3 days to sPIF-1(15) (SEQ ID NO:13) (2-200 nM) using 20 ul MAbCD3-PE (BD).

CD2 = CD2 expression in PBMC (flow cytometry, CD2MAb-FITC); type: cell-based; details: PBMC exposed 3 days
β-3 integrin = β-3 integrin expression by human endometrial epithelial cells (flow cytometry, immunocytochemistry); type: cell-based; details: hEEC, 2-day culture, 1-500 nM
Protocol: Human endometrial tissues were digested and stromal and epithelial cells (hEEC) isolated and cultured with a fetal bovine serum (FBS)-enriched medium until confluent layers were obtained. After that the cells were cultured for two more days in a FBS free-medium followed by a further 2-day culture in the same medium containing PIF peptides (1-500 nM).
as §1

PBMC [2] = test: Time-dependent cytokine secretion by PBMC (Table 3); type: cell-based, human; details: substance alone
Protocol: Detailed time dependent and multiple controls were used the secretion of several cytokines by PBMC (IL-2, IL-5, IL-8, GM-CSF, IL-4, IL-10, TNF-α, IFN-γβ, IL-1 and IL-6) were measured. […] By 4 hours, sPIF-1 blocked TNF alpha with recovery by 24 hours. Also INFgamma secretion initiated only after 48 hours. […] Effects on cytokines was already noted at 0.7 nM. Similar effects were found also with other mitogens LPS and PHA when PIF-1 was tested.

PBMC [3] = test: PIF-1 effects on cytokine expression in patient and control PBMC (Table 7); type: cell-based, human; details: PHA +, PIF-115 −

Which results are given for PGSA [sPIF-1(4)]?
GM-CSM (PBMC [1]; C- (platebound mAbCD3), /1): 13.7; IFN-g (PBMC [1]; C- (platebound mAbCD3), /1): 81.3; IL-1β (PBMC [1]; C- (platebound mAbCD3), /1): 6.0; IL-2 (PBMC [1]; C- (platebound mAbCD3), /1): 24.0; IL-4 (PBMC [1]; C- (platebound mAbCD3), /1): 0; IL-5 (PBMC [1]; C- (platebound mAbCD3), /1): 0; IL-6 (PBMC [1]; C- (platebound mAbCD3), /1): 233.6; IL-8 (PBMC [1]; C- (platebound mAbCD3), /1): >5000; IL-10 (PBMC [1]; C- (platebound mAbCD3), /1): 44.1; TNFa (PBMC [1]; C- (platebound mAbCD3), /1): 68.3; GM-CSM (PBMC [1]; C- (platebound mAbCD3), /50): 27.3; IFN-g (PBMC [1]; C- (platebound mAbCD3), /50): 145.4; IL-1β (PBMC [1]; C- (platebound mAbCD3), /50): 7.3; IL-2 (PBMC [1]; C- (platebound mAbCD3), /50): 36.2; IL-4 (PBMC [1]; C- (platebound mAbCD3), /50): 17.8; IL-5 (PBMC [1]; C- (platebound mAbCD3), /50): 8.6; IL-6 (PBMC [1]; C- (platebound mAbCD3), /50): 270.1; IL-8 (PBMC [1]; C- (platebound mAbCD3), /50): >5000; IL-10 (PBMC [1]; C- (platebound mAbCD3), /50): 82.5; TNFa (PBMC [1]; C- (platebound mAbCD3), /50): 299.9; GM-CSM (PBMC [1]; U- (no mAbCD3), /1): 0; IFN-g (PBMC [1]; U- (no mAbCD3), /1): 0; IL-1β (PBMC [1]; U- (no mAbCD3), /1): 0; IL-2 (PBMC [1]; U- (no mAbCD3), /1): 0; IL-4 (PBMC [1]; U- (no mAbCD3), /1): 0; IL-5 (PBMC [1]; U- (no mAbCD3), /1): 0; IL-6 (PBMC [1]; U- (no mAbCD3), /1): 32.9; IL-8 (PBMC [1]; U- (no mAbCD3), /1): 809.3; IL-10 (PBMC [1]; U- (no mAbCD3), /1): 0; TNFa (PBMC [1]; U- (no mAbCD3), /1): 0; GM-CSM (PBMC [1]; U- (no mAbCD3), /50): 0; IFN-g (PBMC [1]; U- (no mAbCD3), /50): 0; IL-1β (PBMC [1]; U- (no mAbCD3), /50): 0; IL-2 (PBMC [1]; U- (no mAbCD3), /50): 0; IL-4 (PBMC [1]; U- (no mAbCD3), /50): 0; IL-5 (PBMC [1]; U- (no mAbCD3), /50): 0; IL-6 (PBMC [1]; U- (no mAbCD3), /50): 33.4; IL-8 (PBMC [1]; U- (no mAbCD3), /50): 1079.9; IL-10 (PBMC [1]; U- (no mAbCD3), /50): 0; TNFa (PBMC [1]; U- (no mAbCD3), /50): 0; effect on IL6 and 8 (PBMC [1]; non-stimulated PBMC): stimulatory effect

For SGIVIYQYMDDRYVGSDL [sPIF-3(18)], which “binding to epithelial cells” value (epithelial cells) is on record?
Its value is “mild”.

Which “increase in CD3 receptor expression” value (CD3) does the source give for SQAVQEHASTNMG [sPIF-2(13)] here?
The value was 180-230%.

And the “increase in CD2 expression” value (CD2)?
The value was 125-160%.

What about the “increase in the expression of β-3-epithelial integrin” value (β-3 integrin) of the same substance?
Its value is “up to a four-fold increase”.

And the “binding to epithelial cells” value (epithelial cells)?
Its value is “mild”.

Which GM-CSF (PBMC [2]; 4 h post induction) does the source give for “phytohemmaglutinin [PHA, reference compound]” here?
Its GM-CSF is 60.4 pg/mL.

And the IFN-y (PBMC [2]; 4 h post induction)?
Its IFN-y is 0 pg/mL.

What about the IL-1β (PBMC [2]; 4 h post induction) of the same substance?
Its IL-1β is 891.2 pg/mL.

And the IL-2 (PBMC [2]; 4 h post induction)?
Its IL-2 is 28.7 pg/mL.

What about the IL-4 (PBMC [2]; 4 h post induction) of the same substance?
Its IL-4 is 0 pg/mL.

And the IL-5 (PBMC [2]; 4 h post induction)?
The IL-5 was 0 pg/mL.

What about the IL-6 (PBMC [2]; 4 h post induction) of the same substance?
Its IL-6 is 7045.0 pg/mL.

What about the IL-8 (PBMC [2]; 4 h post induction) of the same substance?
The IL-8 was 0 pg/mL.

And the IL-10 (PBMC [2]; 4 h post induction)?
The IL-10 was 13.3 pg/mL.

What about the TNF-α (PBMC [2]; 4 h post induction) of the same substance?
The TNF-α was 18829.1 pg/mL.

What about the GM-CSF (PBMC [2]; 24 h post induction) of the same substance?
Its GM-CSF is 60.0 pg/mL.

What about the IFN-y (PBMC [2]; 24 h post induction) of the same substance?
The IFN-y was 1728.8 pg/mL.

And the IL-1β (PBMC [2]; 24 h post induction)?
The IL-1β was 5010.5 pg/mL.

What about the IL-2 (PBMC [2]; 24 h post induction) of the same substance?
The IL-2 was 2800.6 pg/mL.

What about the IL-4 (PBMC [2]; 24 h post induction) of the same substance?
The IL-4 was 60.0 pg/mL.

What about the IL-5 (PBMC [2]; 24 h post induction) of the same substance?
Its IL-5 is 125.0 pg/mL.

And the IL-6 (PBMC [2]; 24 h post induction)?
The IL-6 was >5200 pg/mL.

And the IL-8 (PBMC [2]; 24 h post induction)?
Its IL-8 is >6330 pg/mL.

And the IL-10 (PBMC [2]; 24 h post induction)?
Its IL-10 is 1411.5 pg/mL.

And the TNF-α (PBMC [2]; 24 h post induction)?
The TNF-α was >11390 pg/mL.

And the GM-CSF (PBMC [2]; 48 h post induction)?
The GM-CSF was 0 pg/mL.

And the IFN-y (PBMC [2]; 48 h post induction)?
The IFN-y was 0 pg/mL.

And the IL-1β (PBMC [2]; 48 h post induction)?
Its IL-1β is 0 pg/mL.

What about the IL-2 (PBMC [2]; 48 h post induction) of the same substance?
The IL-2 was 0 pg/mL.

And the IL-4 (PBMC [2]; 48 h post induction)?
Its IL-4 is 0 pg/mL.

What about the IL-5 (PBMC [2]; 48 h post induction) of the same substance?
The IL-5 was 0 pg/mL.

And the IL-6 (PBMC [2]; 48 h post induction)?
The IL-6 was 0 pg/mL.

What about the IL-8 (PBMC [2]; 48 h post induction) of the same substance?
The IL-8 was 5634.0 pg/mL.

And the IL-10 (PBMC [2]; 48 h post induction)?
Its IL-10 is 0 pg/mL.

And the TNF-α (PBMC [2]; 48 h post induction)?
The TNF-α was 0 pg/mL.

What about the GM-CSF (PBMC [2]; 96 h post induction) of the same substance?
Its GM-CSF is 0 pg/mL.

What about the IFN-y (PBMC [2]; 96 h post induction) of the same substance?
The IFN-y was 0 pg/mL.

What about the IL-1β (PBMC [2]; 96 h post induction) of the same substance?
Its IL-1β is 0 pg/mL.

What about the IL-2 (PBMC [2]; 96 h post induction) of the same substance?
The IL-2 was 0 pg/mL.

And the IL-4 (PBMC [2]; 96 h post induction)?
Its IL-4 is 0 pg/mL.

And the IL-5 (PBMC [2]; 96 h post induction)?
The IL-5 was 0 pg/mL.

What about the IL-6 (PBMC [2]; 96 h post induction) of the same substance?
The IL-6 was 0 pg/mL.

What about the IL-8 (PBMC [2]; 96 h post induction) of the same substance?
The IL-8 was >6330 pg/mL.

And the IL-10 (PBMC [2]; 96 h post induction)?
The IL-10 was 0 pg/mL.

And the TNF-α (PBMC [2]; 96 h post induction)?
Its TNF-α is 0 pg/mL.

What about the IL-10 (PBMC [3]; control) of the same substance?
Its IL-10 is 25.72 % of total PBMC in scatter gate.

What about the TH1/TH2 (PBMC [3]; control) of the same substance?
The TH1/TH2 was 0.68.

What about the TNFα (PBMC [3]; control) of the same substance?
The TNFα was 17.43 % of total PBMC in scatter gate.

And the IL-10 (PBMC [3]; patient)?
The IL-10 was 24.76 % of total PBMC in scatter gate.

And the TH1/TH2 (PBMC [3]; patient)?
Its TH1/TH2 is 0.57.

And the TNFα (PBMC [3]; patient)?
Its TNFα is 14.23 % of total PBMC in scatter gate.
